# Results published in PMC5339268, “Ganoderic Acid A Metabolites and Their Metabolic Kinetics” (Frontiers in Pharmacology, 2017).
# Like-named read-outs stand apart in the source and are kept apart here.
# Assays:
# CYP3A [1] = assay: Effect of CYP inhibitors on formation of GAA metabolites in HLMs; assay type: in vitro ADME; conditions: human, human liver microsomes (HLMs), probe GAA (10 μM), ketoconazole 10 μM
# Protocol: (§1) GAA (10 μM) was incubated with 0.25 mg/ml RLMs or HLMs in the incubation system as described in Section Formation Kinetics of the Metabolites M2 and M4, in the present or absent of the following CYP enzymes inhibitors, 10 μM α- naphthoflavone (for CYP1A2), 100 μM ticlopidine (for CYP2C19), 10 μM quinidine (for CYP2D), 10 μM ketoconazole (for CYP3A), 100 μM fluconazole (for CYP2C9) and 100 μM diethyldithiocarbamate (for CYP2E1), respectively. The M2 and M4 formation rates in the present and absent of inhibitors were compared. The percentage of inhibition was calculated. Each of the incubations was performed in triplicate.
# CYP3A [2] = assay: Effect of CYP inhibitors on formation of GAA metabolites in RLMs; assay type: in vitro ADME; conditions: rat, rat liver microsomes (RLMs), probe GAA (10 μM), formation of metabolite M2, RLMs 0.25 mg/ml, ketoconazole 10 μM
# Protocol: as §1
# [3] = GAA metabolite identification in rat bile, plasma and urine after intravenous administration (HPLC-DAD-MS/MS); conditions: for Detected resource 1, rat bile: rat bile 0–4 h after i.v. GAA 20 mg/kg; for Detected resource 2, rat plasma: rat plasma 5 and 30 min after i.v. GAA 20 mg/kg; for Detected resource 3, rat urine: rat urine 0–4 h after i.v. GAA 20 mg/kg
# Protocol: Male Sprague-Dawley rats (200 ± 20 g) were supplied by Beijing Vital Laboratory Animal Technology (Beijing, China). The animal experiment was approved by the Animal Ethics Committee at the Institute of Medicinal Plant Development, Chinese Academy of Medical Sciences. […] On the day before the experiment, the rats were suffered with light surgeries. Under anesthesia by an intraperitoneal dose of 10% chloral hydrate at 3.50 ml/kg, a polyethylene catheter (0.50 mm ID, 1.00 mm OD, Portex Limited, Hythe, Kent, England) was cannulated into the right jugular vein for intravenous drug administration and blood collection, and another catheter (0.28 mm ID, 0.61 mm OD, Portex Limited, Hythe, Kent, England) was cannulated into the bile fistul for bile collection. After surgery, the rats were placed individually in metabolism cages and allowed to recover for at least 24 h. The rats were fasted over night with free access to water prior to drug administration.
# GAA (25 mg) was dissolved in 500 μl of physiological saline containing 2% sodium carbonate and diluted with physiological saline to make the volume of 5 ml (Cheng C.-R. et al., [2013]). The solution was given to rats (n = 5) intravenously at 20 mg/kg through the jugular vein catheter. After dosing and blood sample collection, 0.2 ml of normal saline with 20 units of heparin was injected into the body through the catheter to flush the catheter and prevent blood coagulation.
# Rats were held in metabolism cages, blood was collected into heparinized tubes from the jugular vein before (blank) and at 5 and 30 min post dosing, and then centrifuged at 1,500 g for 10 min for plasma separation. At the same time, bile and urine samples were collected before (blank) and over the period of 0–4 h post dosing. All of the collected blank plasma, blank bile, blank urine, dosing plasma, dosing bile or dosing urine from five rats were pooled together respectively and stored at −20°C until assay.
# For plasma, an aliquot of 200 μl sample was mixed with 20 μl HCl solution (1 M), and then extracted with 1.5 ml of ethyl acetate by vortex-mixing for 10 min. The ethyl acetate layer was collected and concentrated to dryness by a vacuum concentrator. The residue was reconstituted in 100 μl 80% methanol and centrifuged at 20,000 g for 15 min. The supernatant was collected for HPLC-DAD-MS/MS assay. For bile, an aliquot of 150 μl sample was mixed with 150 μl 80% methanol and 10 μl 5% formic acid, and then centrifuged at 20,000 g for 15 min. The supernatant was collected for HPLC-DAD-MS/MS assay. For urine, an aliquot of 2 ml sample was loaded on a pretreated ODS-C18 cartridge (Agilent AccuBOND, 500 mg). After washing with 5 ml of water, the cartridge was eluted with 10 ml of methanol. The methanol eluate was collected and concentrated to dryness by a vacuum concentrator at 37°C. The residue was reconstituted in 200 μl 80% methanol and centrifuged at 20,000 g for 15 min, and the supernatant was collected for HPLC-DAD-MS/MS assay.
# The identification of metabolites were conducted by a HPLC-DAD-MS/MS system equipped with an Agilent 1,260 HPLC system (Agilent Technologies, Santa Clara, CA, USA), 1,260 diode array detector (DAD) and 4,500 Q-Trap mass spectrometer with electrospray ionization source (AB SCIEX, Framingham, MA, USA). Chromatographic separation was performed on a C18 column (100 × 4.6 mm, 2.4 μm, BDS hypersil, Thermo, PA) maintained at 40°C. The mobile phase consisted of acetonitrile (A) and 0.1% formic acid aqueous solution (B) with following gradient elution at a flow rate of 0.40 ml/min: 0–10 min, 20–35% A; 10–20 min, 35% A; 20–25 min, 35–65% A; 25–30 min, 65% A; 30–35 min, 65–20% A; and 35–45 min, 20% A. The DAD spectral data was collected from 190 to 400 nm. The injection volume of all the tested samples was 10 μl. Mass data were acquired in negative mode under the following conditions, ion spray voltage −4,500 V, ion source temperature 450°C, curtain gas 10 psi, nebulizer gas 60 psi and auxiliary gas 60 psi.
# HepG2 cells = tested on: HepG2 cells; design: method as in Yao et al., 2012; conditions: ref Yao et al., 2012; cited from earlier work
# EL4 syngeneic mice = tested on: EL4 syngeneic mice; design: method as in Radwan et al., 2015; conditions: ref Radwan et al., 2015, cited from earlier work
# [4] = tested on: rat liver microsomes (RLMs); assay: In vitro metabolite identification, GAA incubated with RLMs; conditions: for Detected resource 4, RLMs: 100 μM GAA, 1.0 mg protein/ml RLMs, NADPH and UDPGA, 37°C, 1 h
# Protocol: (§2) For in vitro metabolites identification, the enzyme incubation was performed in a medium containing 1.0 mg protein /ml RLMs or HLMs, 100 μM of GAA, 3.3 mM of MgCl2, 3.0 mM of NADPH, 3.0 mM of UDPGA and 100 mM of sodium phosphate buffer (pH 7.4). The total volume was 500 μl. The metabolism reaction was initiated by adding NADPH and UDPGA after 10 min preincubation at 37°C. The reaction was maintained at 37°C for 1 h and terminated by adding with 500 μl of ice-cold acetonitrile. The mixture was centrifuged at 20,000 g for 15 min, and 10 μl of the supernatant was directly injected for HPLC-DAD-MS/MS assay. Control samples were prepared as described above by using inactivated enzymes in the incubation system. Each of the incubations was performed in duplicate.
# (§3) The identification of metabolites were conducted by a HPLC-DAD-MS/MS system equipped with an Agilent 1,260 HPLC system (Agilent Technologies, Santa Clara, CA, USA), 1,260 diode array detector (DAD) and 4,500 Q-Trap mass spectrometer with electrospray ionization source (AB SCIEX, Framingham, MA, USA). Chromatographic separation was performed on a C18 column (100 × 4.6 mm, 2.4 μm, BDS hypersil, Thermo, PA) maintained at 40°C. The mobile phase consisted of acetonitrile (A) and 0.1% formic acid aqueous solution (B) with following gradient elution at a flow rate of 0.40 ml/min: 0–10 min, 20–35% A; 10–20 min, 35% A; 20–25 min, 35–65% A; 25–30 min, 65% A; 30–35 min, 65–20% A; and 35–45 min, 20% A. The DAD spectral data was collected from 190 to 400 nm. The injection volume of all the tested samples was 10 μl. Mass data were acquired in negative mode under the following conditions, ion spray voltage −4,500 V, ion source temperature 450°C, curtain gas 10 psi, nebulizer gas 60 psi and auxiliary gas 60 psi. Data were collected using Analyst 1.6.2 (Applied Biosystems) in both first quadrupole (Q1) mass scan mode and multiple reaction monitoring (MRM) independent data acquisition (IDA) mode using enhanced product ion scans (EPI) and enhanced resolution (ER) in the ion trap mode.
# [5] = tested on: human liver microsomes (HLMs); assay: In vitro metabolite identification, GAA incubated with HLMs; conditions: for Detected resource 5, HLMs: 100 μM GAA, 1.0 mg protein/ml HLMs, NADPH and UDPGA, 37°C, 1 h
# Protocol: as §2, §3
# [6] = tested on: rat liver microsomes (RLMs)
# Protocol: as §2, §3
# [7] = tested on: rat liver microsomes (RLMs); assay: Formation kinetics of the metabolites M2 and M4 in RLMs; assay type: in vitro ADME
# Protocol: Each of the incubations was performed in triplicate.
# [8] = tested on: human liver microsomes (HLMs)
# Protocol: as §2, §3
# [9] = tested on: human liver microsomes (HLMs); conditions: for Vmax of metabolite formation from GAA: HLMs 0.25 mg protein/ml, GAA 1–50 μM, 30 min
# Protocol: The formation kinetics of the two main reduction metabolites M2 (GAC2) and M4 (7β,15-dihydroxy-3,11,23-trioxo-lanost-26-oic acid) were determined. The incubations were performed in a medium (100 μl) containing 0.25 mg protein /ml RLMs or HLMs, different concentrations of GAA (1–50 μM), 3.3 mM of MgCl2, 3.0 mM of NADPH and 100 mM of sodium phosphate buffer (pH 7.4). After 10 min of preincubation, GAA at each concentration was incubated with RLMs and HLMs for 5 and 30 min, respectively. The reactions were terminated by adding with 100 μl of ice-cold acetonitrile containing 2 μM GLA used as internal standard (IS). After centrifugation, metabolites in the mixture were analyzed by UFLC-MS/MS detection as described below. The metabolite formation rates vs. GAA concentrations were plotted to obtain the Michaelis-Menten constant (Km) and maximum velocity (Vmax) values of the metabolic reactions. Each of the incubations was performed in triplicate.
# The kinetic parameters of GAA metabolism by RLMs or HLMs were calculated by fitting the data to the hyperbolic Michaelis-Menten model: V=Vmax×[S]/Km+[S]
# Where Vmax is the maximal velocity of formation, S is the concentration of substrate, Km is the substrate concentration of half maximal velocity, and the intrinsic clearance (CLint) is calculated as Vmax/Km.
smiles,measurement,setting,value
"CC(=O)N1CCN(c2ccc(OCC3COC(Cn4ccnc4)(c4ccc(Cl)cc4Cl)O3)cc2)CC1 (stereo not shown) [Ketoconazole, ketoconazole]",inhibition at 10 μM,"CYP3A [1]; formation of metabolite M2, HLMs 0.25 mg/ml, read-out: inhibition of the formation of M2 in HLMs",56%
same,inhibition at 10 μM,"CYP3A [1]; formation of metabolite M4, HLMs 0.25 mg/ml, read-out: inhibition of the formation of M4 in HLMs",38.2%
same,inhibition at 10 μM,CYP3A [2],19.9%
"C[C@H](CC(=O)C[C@@H](C)[C@H]1C[C@H](O)[C@@]2(C)C3=C(C(=O)C[C@]12C)[C@@]1(C)CCC(=O)C(C)(C)[C@@H]1C[C@@H]3O)C(=O)O [Metabolite M0, Ganoderic acid A]","Detected resource 1, rat bile",[3],+
same,"Detected resource 2, rat plasma",[3],+
same,"Detected resource 3, rat urine",[3],+
same,chemosensitivity of HepG2 cells to Cisplatin,HepG2 cells,enhance chemosensitivity
same,tumor metastasis to the liver,EL4 syngeneic mice; EL4 syngeneic mice,decrease tumor metastasis to the liver
same,survival of EL4 syngeneic mice,EL4 syngeneic mice,significantly prolong the survival
same,"Detected resource 4, RLMs",[4],+
same,"Detected resource 5, HLMs",[5],+
"C[C@H](CC(=O)C[C@@H](C)[C@H]1C[C@H](O)[C@@]2(C)C3=C(C(=O)C[C@]12C)[C@@]1(C)CC[C@H](O)C(C)(C)[C@@H]1C[C@@H]3O)C(=O)O [Metabolite M2, Ganoderic acid C2]",relative abundance of metabolite in RLMs incubations,[6],most abundant
same,Vmax of metabolite formation from GAA,"[7]; RLMs 0.25 mg protein/ml, GAA 1–50 μM, 5 min",185.81 pmol/min/mg
same,CLint by RLMs higher than by HLMs,[7]; ratio RLMs vs HLMs,20 fold
same,Vmax by RLMs higher than by HLMs,[7]; ratio RLMs vs HLMs,6 fold
same,metabolite detected in HLMs incubations,[8],detected
same,relative abundance of metabolite in HLMs incubations,[8],abundant
same,Vmax of metabolite formation from GAA,[9],30.18 pmol/min/mg
same,Clint of metabolite formation from GAA (Vmax/Km),"[9]; human, pH 7.4",0.33 µL/min/mg
same,Km of M2 higher than that of M4,"[9]; in HLMs, ratio M2 vs M4",15 fold
same,Km by HLMs higher than by RLMs,[9]; ratio HLMs vs RLMs,approximately 3 fold
"CC(CC(=O)CC(C)C1CC(O)C2(C)C3C(O)CC4C(C)(C)C(=O)CCC4(C)C3C(=O)CC12C)C(=O)O (stereo not drawn) [Metabolite M4, 7β,15-dihydroxy-3,11,23-trioxo-lanost-26-oic acid]",metabolite found in RLMs incubations,[6],undetected
same,metabolite detected in HLMs incubations,[8],detected
same,relative abundance of metabolite in HLMs incubations,[8],abundant
same,Vmax of metabolite formation from GAA,[9],29.70 pmol/min/mg
same,CLint of M4 formation higher than that of M2,"[9]; human, pH 7.4",15 fold
same,Clint of metabolite formation from GAA (Vmax/Km),"[9]; human, pH 7.4",4.85 µL/min/mg
"CC(CC(=O)C[C@@H](C)[C@H]1C[C@H](O)[C@@]2(C)C3=C(C(=O)C[C@]12C)[C@@]1(C)CCC(=O)C(C)(C)[C@@H]1CC3=O)C(=O)O (stereo partly shown) [Metabolite M7, Ganoderic acid J]","Detected resource 1, rat bile",[3],+
same,"Detected resource 2, rat plasma",[3],+
same,"Detected resource 3, rat urine",[3],+
"CC(CC(=O)CC(C)C1CC(O)C2(C)C3=C(C(=O)C(O)C12C)C1(C)CCC(=O)C(C)(C)C1CC3O)C(=O)O (stereo not shown) [Metabolite M9, 12-hydroxy ganoderic acid A]",metabolite found in RLMs incubations,[6],found
same,metabolite detected in HLMs incubations,[8],detected
"CC(CC(=O)CC(C)(O)C1CC(O)C2(C)C3=C(C(=O)CC12C)C1(C)CCC(=O)C(C)(C)C1CC3O)C(=O)O (stereo not shown) [Metabolite M11, 20-hydroxy ganoderic acid A]",metabolite found in RLMs incubations,[6],found
same,metabolite detected in HLMs incubations,[8],detected
"CC(CC(=O)CC(C)C1CC(O)C2(C)C3=C(C(=O)CC12C)C1(C)CCC(O)C(C)(CO)C1CC3O)C(=O)O (stereo not drawn) [Metabolite M13, 3,7β,15,28(29)-tetrahydroxy-11, 23-dioxo-lanost-8-en-26-oic acid]",metabolite found in RLMs incubations,[6],detected
"CC(CC(=O)CC(C)C1CC(O)C2(C)C3=C(C(=O)C(O)C12C)C1(C)CCC(O)C(C)(C)C1CC3O)C(=O)O (stereo not shown) [Metabolite M15, 12-hydroxy ganoderic acid C2]",metabolite found in RLMs incubations,[6],detected
"CC(CC(=O)C[C@@H](C)[C@H]1CC(=O)[C@@]2(C)C3=C(C(=O)C[C@]12C)[C@@]1(C)CC[C@H](O)C(C)(C)[C@@H]1C[C@@H]3O)C(=O)O (stereo partly shown) [Metabolite M18, Ganoderic acid B]","Detected resource 1, rat bile",[3],+
same,"Detected resource 2, rat plasma",[3],+
"C[C@H](CC(=O)C[C@@H](C)[C@H]1C[C@H](O)[C@@]2(C)C3=C(C(=O)C[C@]12C)[C@@]1(C)CC[C@H](O[C@@H]2O[C@H](C(=O)O)[C@@H](O)[C@H](O)[C@H]2O)C(C)(C)[C@@H]1C[C@@H]3O)C(=O)O [Metabolite M25, Ganoderic acid C2 3-O-glucuronide]","Detected resource 1, rat bile",[3],+
same,"Detected resource 4, RLMs",[4],+
same,metabolite found in RLMs incubations,[4],detected
"C[C@H](CC(=O)C[C@@H](C)[C@H]1C[C@H](O)[C@@]2(C)C3=C(C(=O)C[C@]12C)[C@@]1(C)CC[C@H](O)C(C)(C)[C@@H]1C[C@@H]3O[C@@H]1O[C@H](C(=O)O)[C@@H](O)[C@H](O)[C@H]1O)C(=O)O [Metabolite M26, Ganoderic acid C2 7-O-glucuronide]","Detected resource 1, rat bile",[3],+
"C[C@H](CC(=O)C[C@@H](C)[C@H]1C[C@H](O[C@@H]2O[C@H](C(=O)O)[C@@H](O)[C@H](O)[C@H]2O)[C@@]2(C)C3=C(C(=O)C[C@]12C)[C@@]1(C)CC[C@H](O)C(C)(C)[C@@H]1C[C@@H]3O)C(=O)O [Metabolite M27, Ganoderic acid C2 15-O-glucuronide]","Detected resource 1, rat bile",[3],+
"C[C@H](CC(=O)C[C@@H](C)[C@H]1C[C@H](O)[C@@]2(C)C3=C(C(=O)C[C@]12C)[C@@]1(C)CCC(=O)C(C)(C)[C@@H]1C[C@@H]3O[C@@H]1O[C@H](C(=O)O)[C@@H](O)[C@H](O)[C@H]1O)C(=O)O [Metabolite M28, Ganoderic acid A 7-O-glucuronide]","Detected resource 1, rat bile",[3],+
same,"Detected resource 2, rat plasma",[3],+
same,"Detected resource 3, rat urine",[3],+
same,"Detected resource 4, RLMs",[4],+
same,metabolite found in RLMs incubations,[4],found
same,"Detected resource 5, HLMs",[5],+
same,metabolite detected in HLMs incubations,[5]; HLMs incubations,detected
"CC(CC(=O)C[C@@H](C)[C@H]1CC(O)[C@@]2(C)C3=C(C(O[C@@H]4O[C@H](C(=O)O)[C@@H](O)[C@H](O)[C@H]4O)C[C@]12C)[C@@]1(C)CCC(=O)C(C)(C)[C@@H]1CC3=O)C(=O)O (stereo partly shown) [Metabolite M29, 15-hydroxy-3,7,23-trioxo-lanost-8-en-26-oic acid-11-O-glucuronide]","Detected resource 1, rat bile",[3],+
same,"Detected resource 2, rat plasma",[3],+
same,"Detected resource 3, rat urine",[3],+
"C[C@H](CC(=O)C[C@@H](C)[C@H]1C[C@H](O[C@@H]2O[C@H](C(=O)O)[C@@H](O)[C@H](O)[C@H]2O)[C@@]2(C)C3=C(C(=O)C[C@]12C)[C@@]1(C)CCC(=O)C(C)(C)[C@@H]1C[C@@H]3O)C(=O)O [Metabolite M30, Ganoderic acid A 15-O-glucuronide]","Detected resource 1, rat bile",[3],+
same,"Detected resource 3, rat urine",[3],+
"CC(CC(=O)C[C@@H](C)[C@H]1CC(O[C@@H]2O[C@H](C(=O)O)[C@@H](O)[C@H](O)[C@H]2O)[C@@]2(C)C3=C(C(O)C[C@]12C)[C@@]1(C)CCC(=O)C(C)(C)[C@@H]1CC3=O)C(=O)O (stereo partly shown) [Metabolite M31, 11-hydroxy-3,7,23-trioxo-lanost-8-en-26-oic acid-15-O-glucuronide]","Detected resource 1, rat bile",[3],+
same,"Detected resource 3, rat urine",[3],+
"CC(CC(=O)CC(C)C1CC(O)C2(C)C3=C(C(=O)CC12C)C1(C)CCC(=O)C(C)(CO)C1CC3O)C(=O)O (stereo not shown) [Metabolite M35, 28(29)-hydroxy ganoderic acid A]",metabolite detected in HLMs incubations,[8],detected
